Patent US20100291089A1, “LIGAND OF REGULATING IMMUNE RESPONSE, AND USE THEREOF IN TREATING AN IMMUNE RESPONSE-RELATED DISEASE” (POSTECH ACADEMY-INDUSTRY FOUNDATION, priority 2005, published 2010)
Where no end group is shown, it is not given here.

Legend:
Assay type in all cases: cell-based
human neutrophils [1] = test: Neutrophil chemotaxis assay (multiwell chamber, checkerboard analysis); conditions: 1 μM WRW4, 1 μM PACAP27
Protocol: Chemotaxis assays were performed using multiwell chambers (Neuroprobe Inc., Gaithersburg, Md.) (Bae, Y. S., H. Bae, Y. Kim, T. G. Lee, P. G. Suh, and S. H. Ryu. 2001. Blood 97:2854-2862). Prepared human neutrophils were suspended in RPMI 1640 medium at a 1×10^6 cells/ml, and 25 μl of this suspension was placed into the upper well of a chamber separated from the lower chamber, which was filled with testing solutions, by a […] filter (not coated with polyvinylpyrrolidone). After incubating for 2 hours at 37° C., non-migrated cells were removed by scraping, and cells that had migrated across the filter were dehydrated, fixed, and stained with hematoxylin (Sigma, St. Louis, Mo.). Stained cells in five randomly chosen high power fields (HPF) (400×) were then counted.
Neutrophil migration was analyzed for 2 hours across a polycarbonate membrane. Various concentrations of PACAP27 (SEQ ID NO:1) as shown in the following Table 1 were placed in the upper and lower compartments of the chambers. Data are presented as means±SE for migrated neutrophils cells per field counted in triplicate of two independent experiments.

human neutrophils [2] = test: Intracellular calcium mobilization (fura-2) in human neutrophils
Protocol: (§1) Neutrophils were stimulated with 1 μM of PACAP27 (SEQ ID NO:1), PACAP38 (SEQ ID NO:2), or VIP (SEQ ID NO:3), and calcium concentrations were measured for 10 min. In order to measure EKR phosphorylation, each peptide hormones was used with 1 μM concentrations for 5 min. For cAMP measurement, each peptide hormones was used with 1 μM concentrations for 10 min.
Intracellular calcium concentrations ([Ca^2+]i) were determined using Grynkiewicz's method with fura-2/AM, as described in “Grynkiewicz, G., M. Poenie, and R. Y. Tsien. 1985. […] J. Biol. Chem. 260:3440-3450”. Briefly, the cells prepared in Example 1.2 were incubated with 3 µM fura-2/AM at 37° C. for 50 minutes in fresh serum free RPMI 1640 medium with continuous stirring. The incubated cells (2×10^6) were aliquoted for each assay in Ca^2+-free Locke's solution (154 mM NaCl, 5.6 mM KCl, 1.2 mM MgCl2, 5 mM HEPES (pH 7.3), 10 mM glucose, and 0.2 mM EGTA). Fluorescence changes at 340 and 380 nm using a common emission wavelength of 500 nm were measured, and fluorescence ratios were converted to [Ca2+]i, as described in above Grynkiewicz, G. et al.

human neutrophils [3] = test: Western blot for ERK phosphorylation in human neutrophils; conditions: pretreating with 1 μM WRW4
Protocol: as §1
ERK phosphorylation levels were measured by Western blotting, as described in above Bae, Y. S. et al. Cells (2×10^6/assay) were stimulated with the indicated concentration of agonist for 5 minutes, then washed with serum-free RPMI 1640 medium and lysed in lysis buffer {20 mM HEPES (pH 7.2), 10% glycerol, 150 mM NaCl, 1% Triton X-100, 1 mM PMSF, […], 50 mM NaF, and 1 mM Na3VO4}. Detergent-insoluble materials were pelleted by centrifugation (12,000×g, 15 minutes, 4° C.), and the soluble supernatant fraction was removed and either stored at −80° C. or used immediately. Laemmli sample buffer was added to these fractions and boiled (5 minutes). Proteins were separated by SDS-PAGE and transferred to nitrocellulose membranes (Schleicher and Schuell, BA85). Blocking was performed using TBS buffer (10 mM Tris/HCl, pH 7.5, 150 mM NaCl, and 0.05% Tween-20) containing 5% nonfat dry milk. Membranes were probed with a phospho-ERK specific primary antibody or ERK2 antibody for 3 hours at room temperature. […]

human neutrophils [4] = test: Intracellular cyclic AMP measurement in neutrophils; conditions: 1 μM WRW4, 10 μM PACAP27 for 10 minutes
Protocol: Neutrophils were stimulated with 1 μM of PACAP27 (SEQ ID NO:1), PACAP38 (SEQ ID NO:2), or VIP (SEQ ID NO:3), and calcium concentrations were measured for 10 min. In order to measure EKR phosphorylation, each peptide hormones was used with 1 μM concentrations for 5 min. […]
Briefly, neutrophils were isolated and resuspended at 5×10^6 cells/ml in Hank's balanced salt solution (HBSS) for 5-10 minutes in a shaking incubator. The HBSS was then replaced with […] HBSS containing 500 µM isobutylmethylxanthine (IBMX; a cAMP phosphodiesterase inhibitor) for 5 minutes, and then cells were stimulated for 10 minutes. The reaction was terminated by adding 1 ml of ethanol, and cAMP levels were determined by using cAMP measuring kit (Neurunex, Pohang, Korea) according to the manufacturer's instructions.

human monocytes = test: Intracellular calcium signaling in human monocytes; conditions: 1 μM WRW4
From the text: 1.3. Preparation of Neutrophils and Monocytes Peripheral blood was collected from healthy donors (male, 20˜30 years old, venous blood collection). Human neutrophils were isolated by dextran sedimentation followed by hypotonic erythrocyte lysis and lymphocyte separation medium gradient, as described in “Bae, Y. S., H. Bae, Y. Kim, T. G. Lee, P. G. Suh, and S. H. Ryu. 2001. Identification of novel chemoattractant peptides for human leukocytes. Blood 97:2854-2862”. Isolated human neutrophils were used promptly. Peripheral blood mononuclear cells (PBMCs) were separated on a Histopaque-1077 gradient (Bae, Y. S., H. Bae, Y. Kim, T. G. Lee, P. G. Suh, and S. H. Ryu. 2001. Identification of novel chemoattractant peptides for human leukocytes. Blood 97:2854-2862). […]
Intracellular calcium concentrations ([Ca^2+]i) were determined using Grynkiewicz's method with fura-2/AM, as described in “Grynkiewicz, G., M. Poenie, and R. Y. Tsien. […] Fluorescence changes at 340 and 380 nm using a common emission wavelength of 500 nm were measured, and fluorescence ratios were converted to [Ca2+]i, as described in above Grynkiewicz, G. et al.

human neutrophils [5] = test: FACS analysis of surface CD11b expression on neutrophils; conditions: 1 μM WRW4, 10 μM PACAP27
Protocol: Purified neutrophils were incubated with indicated concentration of PACAP27 (SEQ ID NO:1) for 1 hour. Cells (2×10^5/assay) were washed with FACS buffer (PBS containing 1% BSA and 0.1% sodium azide), incubated with human AB type serum for 10 minutes on ice, and stained with PE-labeled human CD11b antibody (BD PharMingen, San Diego, Calif.). They were then analyzed using a FACSCalibur system (BD Biosciences, San Jose, Calif.), as described in “Harfi, I., S. D'Hondt, F. Corazza, and E. Sariban. 2004. J. Immunol. 173:4154-4163”.

WRWWWW [WRW4]
inhibition of PACAP27-induced neutrophil chemotaxis (human neutrophils [1]): completely inhibited | effect on PACAP27 priming of fMLP-induced calcium signaling (human neutrophils [2]; 1 M WRW4): abolished | effect on fMLP-induced calcium signaling (human neutrophils [2]; 1 M WRW4, 10 nM fMLP): not affected | concentration that completely inhibits PACAP27-induced neutrophil activation (human neutrophils [2]; human neutrophils): ≥ 100 nM | inhibition of PACAP27-induced [Ca2+]i up-regulation (human neutrophils [2]; human neutrophils, pretreatment 30 seconds, 1 μM PACAP27): successfully inhibited | inhibition of PACAP27-induced ERK-phosphorylation (human neutrophils [3]): completely inhibited | inhibition of PACAP27-induced cAMP elevation (human neutrophils [4]): failed to inhibit | inhibition of PACAP27-induced calcium signaling in human monocytes (human monocytes): successfully inhibited | inhibition of PACAP27-induced CD11b up-regulation (human neutrophils [5]): inhibited completely
